# Source: US8642629B2, “Naphthylacetic acids” (Hoffmann-La Roche Inc., priority 2008, dated 2014)
# Molecular target: T1, human CRTH2 (Homo sapiens, UniProt Q9Y5Y4)
# T1 construct: expressed in transfected cells; host or cells: CHO-K1
# T1 sequence (Q9Y5Y4 1-395): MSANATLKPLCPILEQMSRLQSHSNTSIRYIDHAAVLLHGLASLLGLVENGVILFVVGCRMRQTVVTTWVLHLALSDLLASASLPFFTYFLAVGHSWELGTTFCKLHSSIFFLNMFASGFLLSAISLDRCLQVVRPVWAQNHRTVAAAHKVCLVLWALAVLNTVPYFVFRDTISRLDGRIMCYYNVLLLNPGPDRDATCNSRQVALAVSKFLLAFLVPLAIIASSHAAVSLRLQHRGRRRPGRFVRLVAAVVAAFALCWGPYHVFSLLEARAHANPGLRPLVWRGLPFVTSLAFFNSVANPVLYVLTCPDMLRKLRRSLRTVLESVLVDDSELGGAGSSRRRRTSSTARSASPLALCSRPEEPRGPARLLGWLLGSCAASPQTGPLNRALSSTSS
# Assay: Human CRTH2 Receptor Binding Assay (whole cell, [3H]ramatroban competition)
# Conditions: CHO-K1 cells expressing human CRTH2 and G-alpha16; 20 nM [3H]ramatroban; 1 hour, room temperature
# Source text: A whole cell receptor binding assay using [^3H]ramatroban as the competing radioactive ligand was employed to evaluate the compound binding activity to human CRTH2. The radioactive ligand [^3H]ramatroban was synthesized according to Sugimoto et. al. (Eur. J. Pharmacol. 524, 30-37, 2005) to a specific activity of 42 Ci/mmol.
# A cell line stably expressing human CRTH2 was established by transfecting CHO-K1 cells with two mammalian expression vectors that harbored human CRTH2 and G-alpha16 cDNAs, respectively, using FuGene® 6 transfection reagent (from Roche). Stable clones expressing CRTH2 were selected by staining each clone with BM16 (BD Pharmingen™ from BD Biosciences, a division of Becton, Dickinson and Company), which is a rat monoclonal antibody to human CRTH2. The cells were maintained as monolayer cultures in Ham's F-12 medium containing 10% fetal bovine serum, 100 units/mL penicillin, 100 μg/mL streptomycin, 2 mM glutamine, 0.5 mg/mL G418 (geneticin) for CRTH2, and 0.2 mg/mL hygromycin-B (for G-alpha 16). For whole cell receptor binding assay, the monolayer cells were rinsed once with PBS (phosphate buffered saline), dissociated using ethylenediaminetetraacetate (Versene™ EDTA from Lonza Inc.), and suspended in PBS containing 10 mM MgCl2 and 0.06% BSA (bovine serum albumin) at 1.5×10^6 cells/mL.
# The binding reactions (0.2 mL) were performed in 96-well plates at room temperature in PBS containing 1.5×10^5 cells, 10 mM MgCl2, 0.06% BSA, 20 nM [^3H]ramatroban, and test compound at various concentrations. After 1 hour of binding reactions, the cells were harvested on GF™/B filter microplates (microtiter plates with embedded glass fiber from PerkinElmer, Inc.) and washed 5 times with PBS using a Filtermate™ Harvester (a cell harvester that harvests and washes cells from microplates from PerkinElmer, Inc.). The radioactivities bound to the cells were determined using a microplate scintillation counter (TopCount® NXT, from PerkinElmer, Inc.) after adding 50 μL of Microscint™ 20 scintillation fluid (from PerkinElmer, Inc.) to each well of the filter plates. The radioactivity from non-specific binding was determined by replacing compound with 10 μM of 15(R)-15-methyl PGD2 (from Cayman Chemical Company) in the reaction mixtures. The radioactivity bound to the cells in the absence of compound (total binding) was determined by replacing compound with 0.25% of DMSO (dimethyl sulfoxide) in the reaction mixture. Specific binding data were obtained by subtracting the radioactivity of non-specific binding from each binding data.
# The IC50 value is defined as the concentration of the tested compound that is required for 50% inhibition of total specific binding. In order to calculate the IC50 value, the percent inhibition data were determined for 7 concentrations for each compound. The percent inhibition for a compound at each concentration was calculated according to the following formula, [1−(specific binding in the presence of compound)/(total specific binding)]×100. The IC50 value was then obtained by fitting the percent inhibition data to a sigmoidal dose-response (4 parameter logistic) model in the XLfit® software Excel add-in program [from ID Business Solutions Ltd., model 205, where F(x)=(A+(B−A)/(1+((C/x)^D)))].
row,Compound,IC50
1,"CCS(=O)(=O)c1ccc(Oc2cc(CC(=O)O)cc3cccc(F)c23)cc1 [Example 1-22, [4-(4-Ethanesulfonyl-phenoxy)-5-fluoro-naphthalen-2-yl]-acetic acid]",5.4 nM
2,"CCS(=O)(=O)c1ccc(Oc2cc(CC(=O)O)cc3cc(F)ccc23)cc1 [Example 1-20, [4-(4-Ethanesulfonyl-phenoxy)-7-fluoro-naphthalen-2-yl]-acetic acid]",18.1 nM
3,"CCS(=O)(=O)c1ccc(Oc2cc(CC(=O)O)cc3ccc(OC(F)(F)F)cc23)cc1 [Example 1-19, [4-(4-Ethanesulfonyl-phenoxy)-6-trifluoromethoxy-naphthalen-2-yl]-acetic acid]",2.6 nM
4,"CS(=O)(=O)c1ccc(Oc2cc(CC(=O)O)cc3ccc(Cl)cc23)cc1 [Example 1-3, [6-chloro-4-(4-methanesulfonyl-phenoxy)-naphthalen-2-yl]-acetic acid]",8.5 nM
5,"Cc1cc(S(C)(=O)=O)cnc1Oc1cc(CC(=O)O)cc2ccc(F)cc12 [Example 1-10, [6-fluoro-4-(5-methanesulfonyl-3-methyl-pyridin-2-yloxy)-naphthalen-2-yl]-acetic acid]",3.3 nM
6,"CS(=O)(=O)c1cnc(Oc2cc(CC(=O)O)cc3ccc(F)cc23)c(Br)c1 [Example 1-14, [4-(3-bromo-5-methanesulfonyl-pyridin-2-yloxy)-6-fluoro-naphthalen-2-yl]-acetic acid]",19.1 nM
7,"Cc1cc(Oc2cc(CC(=O)O)cc3ccc(F)cc23)ccc1S(C)(=O)=O [Example 1-7, [6-fluoro-4-(4-methanesulfonyl-3-methyl-phenoxy)-naphthalen-2-yl]-acetic acid]",3.5 nM
8,"CCS(=O)(=O)c1ccc(Oc2cc(CC(=O)O)cc3ccc(F)cc23)c(C)c1 [Example 1-8, [4-(4-ethanesulfonyl-2-methyl-phenoxy)-6-fluoro-naphthalen-2-yl]-acetic acid]",3.3 nM
9,"CCS(=O)(=O)c1ccc(Oc2cc(CC(=O)O)cc3ccc(OC)cc23)nc1 [Example 1-21, [4-(5-Ethanesulfonyl-pyridin-2-yloxy)-6-methoxy-naphthalen-2-yl]-acetic acid]",4.7 nM
10,"Cc1cc(S(C)(=O)=O)ccc1Oc1cc(CC(=O)O)cc2ccc(F)cc12 [Example 1-6, [6-fluoro-4-(4-methanesulfonyl-2-methyl-phenoxy)-naphthalen-2-yl]-acetic acid]",7.1 nM

# Second part, the compound after the results:
row,IC50,Compound
1,2.2 nM,"Cc1c(CC(=O)O)cc2ccc(Cl)cc2c1Oc1ccc(S(C)(=O)=O)cc1 [Example 2-7, [6-Chloro-4-(4-methanesulfonyl-phenoxy)-3-methyl-naphthalen-2-yl]-acetic acid]"
2,2.4 nM,"CCCS(=O)(=O)c1ccc(Oc2c(C)c(CC(=O)O)cc3ccc(F)cc23)cc1 [Example 2-22, {6-fluoro-3-methyl-4-[4-(propane-1-sulfonyl)-phenoxy]-naphthalen-2-yl}-acetic acid]"
3,21.3 nM,"CCS(=O)(=O)c1ccc(Oc2cc(CC(=O)O)c(F)c3ccc(F)cc23)nc1 [Example 4-2, [1,6-difluoro-4-(5-ethanesulfonyl-pyridin-2-yloxy)-naphthalen-2-yl]-acetic acid]"
4,3.1 nM,"CCS(=O)(=O)c1ccc(Oc2c(F)c(CC(=O)O)cc3ccc(F)cc23)nc1 [Example 5-1, [4-(5-ethanesulfonyl-pyridin-2-yloxy)-3,6-difluoro-naphthalen-2-yl]-acetic acid]"
5,7.9 nM,"CS(=O)(=O)c1ccc(Oc2cc(CC(=O)O)c(F)c3ccc(F)cc23)nc1 [Example 4-1, [1,6-difluoro-4-(5-methanesulfonyl-pyridin-2-yloxy)-naphthalen-2-yl]-acetic acid]"
6,1.8 nM,"Cc1c(CC(=O)O)cc2ccc(F)cc2c1Oc1ccc(S(C)(=O)=O)cc1F [Example 2-12, [6-fluoro-4-(2-fluoro-4-methanesulfonyl-phenoxy)-3-methyl-naphthalen-2-yl]-acetic acid]"
7,3.3 nM,"CS(=O)(=O)c1ccc(Nc2cc(CC(=O)O)cc3ccc(F)cc23)cc1 [Example 8-1, [6-fluoro-4-(4-methanesulfonyl-phenylamino)-naphthalen-2-yl]-acetic acid]"
8,1.7 nM,"CCS(=O)(=O)c1ccc(Oc2c(C)c(CC(=O)O)cc3ccc(F)cc23)c(C#N)c1 [Example 2-18, [4-(2-cyano-4-ethanesulfonyl-phenoxy)-6-fluoro-3-methyl-naphthalen-2-yl]-acetic acid]"
9,8.2 nM,"CCS(=O)(=O)c1cc(F)c(Oc2c(C)c(CC(=O)O)cc3ccc(F)cc23)cc1Cl [Example 2-24, [4-(5-chloro-4-ethanesulfonyl-2-fluoro-phenoxy)-6-fluoro-3-methyl-naphthalen-2-yl]-acetic acid]"
10,2.3 nM,"Cc1c(CC(=O)O)cc2ccc(F)cc2c1Oc1ccc(S(C)(=O)=O)cc1 [Example 2-2, [6-fluoro-4-(4-methanesulfonyl-phenoxy)-3-methyl-naphthalen-2-yl]-acetic acid]"
11,2.4 nM,"CCS(=O)(=O)c1ccc(Oc2c(C)c(CC(=O)O)cc3ccc(F)cc23)c(Cl)c1 [Example 2-21, [4-(2-chloro-4-ethanesulfonyl-phenoxy)-6-fluoro-3-methyl-naphthalen-2-yl]-acetic acid]"
12,2.7 nM,"CCS(=O)(=O)c1ccc(Oc2c(C)c(CC(=O)O)cc3ccc(F)cc23)nc1 [Example 2-33, [4-(5-ethanesulfonyl-pyridin-2-yloxy)-6-fluoro-3-methyl-naphthalen-2-yl]-acetic acid]"
13,1.6 nM,"CCS(=O)(=O)c1ccc(Oc2c(C)c(CC(=O)O)cc3ccc(F)cc23)cc1C [Example 2-14, [4-(4-ethanesulfonyl-3-methyl-phenoxy)-6-fluoro-3-methyl-naphthalen-2-yl]-acetic acid]"
14,2.9 nM,"Cc1c(CC(=O)O)cc2ccc(F)cc2c1Oc1ccc(S(=O)(=O)N2CCC(F)(F)CC2)cc1 [Example 2-42, {4-[4-(4,4-difluoro-piperidine-1-sulfonyl)-phenoxy]-6-fluoro-3-methyl-naphthalen-2-yl}-acetic acid]"
15,378 nM,"CCS(=O)(=O)c1ccc(Oc2c(C)c(C(C)C(=O)O)cc3ccc(F)cc23)nc1 (stereo not drawn) [Example 22-1, 2-[4-(5-Ethanesulfonyl-pyridin-2-yloxy)-6-fluoro-3-methyl-naphthalen-2-yl]-propionic acid]"
16,91.5 nM,"CCS(=O)(=O)c1ccc(Oc2cc(CC(=O)O)cc3ccc(S(C)(=O)=O)cc23)cc1 [Example 16-1, [4-(4-Ethanesulfonyl-phenoxy)-6-methanesulfonyl-naphthalen-2-yl]-acetic acid]"
17,3.2 nM,"CCS(=O)(=O)c1ccc(Oc2c(C)c(CC(=O)O)cc3ccc(F)cc23)cc1 [Example 2-1, [4-(4-ethanesulfonyl-phenoxy)-6-fluoro-3-methyl-naphthalen-2-yl]-acetic acid]"
18,6.3 nM,"Cc1c(CC(=O)O)cc2ccc(F)cc2c1Oc1ccc(S(=O)(=O)N2CCOCC2)cc1 [Example 2-40, {6-fluoro-3-methyl-4-[4-(morpholine-4-sulfonyl)-phenoxy]-naphthalen-2-yl}-acetic acid]"
19,5.4 nM,"CCS(=O)(=O)c1ccc(Oc2cc(CC(=O)O)cc3ccc(Br)cc23)cc1 [Example 15-1, [6-Bromo-4-(4-ethanesulfonyl-phenoxy)-naphthalen-2-yl]-acetic acid]"
20,12.9 nM,"CS(=O)(=O)c1ccc(Oc2cc(CC(=O)O)cc3ccccc23)cc1 [Example 3-1, [4-(4-methanesulfonyl-phenoxy)-naphthalen-2-yl]-acetic acid]"
